For assay [1], the system named is HCV genotype 1a (H77 strain) replicon in HUH-7 cells. Briefly: HCV replicon luciferase reporter assay, genotype 1a. The format is cell-based. The note with it: Hepatitis C virus, Huh-7, 72 h, HCV genotype 1a replicon luciferase assay, 3 days incubation. In short, it runs like this:
(§1)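 Replicon inhibition for both genotypes was measured as Renilla luciferase signal (EnduRen, 7.5 μM final, 2 h) after 3-day, 37° C exposure of replicon-bearing HUH-7 cells in 4% FCS DMEM, 0.5% DMSO. The 1b construct carries S1179I; the 1a H77 construct carries P1496L and S2204I. Twenty-point, 3-fold dilutions were fitted four-parametrically for EC50, and CC50 was taken from multiplexed Cell Titer-Blue.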

Assay [2] relates to HCV genotype 1b (Con1) replicon in HUH-7 cells. Briefly: HCV replicon luciferase reporter assay, genotype 1b. Type of assay: cell-based. The settings on record: Hepatitis C virus, Huh-7, 72 h, HCV genotype 1b replicon luciferase assay, 3 days incubation. Put shortly: as §1
Where [3] appears, read: range class, read-out: LE_1a (EC50, range).
Where [4] appears, read: range class, read-out: LE_1b (EC50, range).

These results are taken from patent publication US9499550B2 (BRISTOL-MYERS SQUIBB COMPANY, priority 2012, dated 2016).

Where two headings read alike, the source gives them in different places.

As to `COc1cc(F)cc2c(O[C@@H]3C[C@H]4C(=O)N[C@]5(C(=O)NS(=O)(=O)C6CC6)C[C@H]5/C=C\CC[C@H](C)C[C@@H](C)[C@H](NC(=O)OC(C)(C)C)C(=O)N4C3)nccc12` [Compound 3163, tert-butyl ((2R,6S,7R,9S,13aS,14aR,16aS,Z)-14a-((cyclopropylsulfonyl)carbamoyl)-2-((7-fluoro-5-methoxyisoquinolin-1-yl)oxy)-7,9-dimethyl-5,16-dioxo-1,2,3,5,6,7,8,9,10,11,13a,14,14a,15,16,16a-hexadecahydrocyclopropa[e]pyrrolo[1,2-a][1,4]diazacyclopentadecin-6-yl)carbamate], the EC50 in assay [1] (setting [3]) and in assay [2] (setting [4]) was 4.82 to 103 nM each time.
As for `COc1cc(F)cc2c(O[C@@H]3C[C@H]4C(=O)N[C@]5(C(=O)NS(=O)(=O)C6CC6)C[C@H]5/C=C\CC[C@@H](C)C[C@@H](C)[C@H](NC(=O)OC(C)(C)C)C(=O)N4C3)nccc12` [Compound 3164, tert-butyl ((2R,6S,7R,9R,13aS,14aR,16aS,Z)-14a-((cyclopropylsulfonyl)carbamoyl)-2-((7-fluoro-5-methoxyisoquinolin-1-yl)oxy)-7,9-dimethyl-5,16-dioxo-1,2,3,5,6,7,8,9,10,11,13a,14,14a,15,16,16a-hexadecahydrocyclopropa[e]pyrrolo[1,2-a][1,4]diazacyclopentadecin-6-yl)carbamate], the EC50 in assay [1] (setting [3]) and in assay [2] (setting [4]) was under 5.46 nM throughout.
For `COc1cc(F)cc2c(O[C@@H]3C[C@H]4C(=O)N[C@]5(C(=O)NS(=O)(=O)C6CC6)C[C@H]5/C=C\CC[C@H](C)C[C@@H](C)[C@H](NC(=O)OC(C)(C)C(F)(F)F)C(=O)N4C3)nccc12` [Compound 3165, 1,1,1-trifluoro-2-methylpropan-2-yl((2R,6S,7R,9S,13aS,14aR,16aS,Z)-14a-((cyclopropylsulfonyl)carbamoyl)-2-((7-fluoro-5-methoxyisoquinolin-1-yl)oxy)-7,9-dimethyl-5,16-dioxo-1,2,3,5,6,7,8,9,10,11,13a,14,14a,15,16,16a-hexadecahydrocyclopropa[e]pyrrolo[1,2-a][1,4]diazacyclopentadecin-6-yl)carbamate], the EC50 in assay [1] (setting [3]) and in assay [2] (setting [4]) was 4.82 to 103 nM in each case.
Consider `COc1cc(F)cc2c(O[C@@H]3C[C@H]4C(=O)N[C@]5(C(=O)NS(=O)(=O)C6CC6)C[C@H]5/C=C\CC[C@@H](C)C[C@@H](C)[C@H](NC(=O)OC(C)(C)C(F)(F)F)C(=O)N4C3)nccc12` [Compound 3166, 1,1,1-trifluoro-2-methylpropan-2-yl((2R,6S,7R,9R,13aS,14aR,16aS,Z)-14a-((cyclopropylsulfonyl)carbamoyl)-2-((7-fluoro-5-methoxyisoquinolin-1-yl)oxy)-7,9-dimethyl-5,16-dioxo-1,2,3,5,6,7,8,9,10,11,13a,14,14a,15,16,16a-hexadecahydrocyclopropa[e]pyrrolo[1,2-a][1,4]diazacyclopentadecin-6-yl)carbamate], for which the EC50 in assay [1] (setting [3]) and in assay [2] (setting [4]) was under 5.46 nM each time.
For `COc1cc(F)cc2c(O[C@@H]3C[C@H]4C(=O)N[C@]5(C(=O)NS(=O)(=O)C6CC6)C[C@H]5/C=C\CC[C@H](C)C[C@@H](C)[C@H](NC(=O)O[C@@H]5C[C@@H]6C[C@@H]6C5)C(=O)N4C3)nccc12` [Compound 3167, (1R,3r,5S)-bicyclo[3.1.0]hexan-3-yl((2R,6S,7R,9S,13aS,14aR,16aS,Z)-14a-((cyclopropylsulfonyl)carbamoyl)-2-((7-fluoro-5-methoxyisoquinolin-1-yl)oxy)-7,9-dimethyl-5,16-dioxo-1,2,3,5,6,7,8,9,10,11,13a,14,14a,15,16,16a-hexadecahydrocyclopropa[e]pyrrolo[1,2-a][1,4]diazacyclopentadecin-6-yl)carbamate], the EC50 in assay [1] (setting [3]) is 4.82 to 103 nM; in assay [2] (setting [4]), under 5.46 nM.
As for `COc1cc(F)cc2c(O[C@@H]3C[C@H]4C(=O)N[C@]5(C(=O)NS(=O)(=O)C6CC6)C[C@H]5/C=C\CC[C@@H](C)C[C@@H](C)[C@H](NC(=O)O[C@@H]5C[C@@H]6C[C@@H]6C5)C(=O)N4C3)nccc12` [Compound 3168, (1R,3r,5S)-bicyclo[3.1.0]hexan-3-yl((2R,6S,7R,9R,13aS,14aR,16aS,Z)-14a-((cyclopropylsulfonyl)carbamoyl)-2-((7-fluoro-5-methoxyisoquinolin-1-yl)oxy)-7,9-dimethyl-5,16-dioxo-1,2,3,5,6,7,8,9,10,11,13a,14,14a,15,16,16a-hexadecahydrocyclopropa[e]pyrrolo[1,2-a][1,4]diazacyclopentadecin-6-yl)carbamate], the EC50 in assay [1] (setting [3]) and in assay [2] (setting [4]) was under 5.46 nM each time.
On to `COc1cc(F)cc2c(O[C@@H]3C[C@H]4C(=O)N[C@]5(C(=O)NS(=O)(=O)C6CC6)C[C@H]5/C=C\CC[C@H](C)C[C@@H](C)[C@H](NC(=O)O[C@H](C)C(F)(F)F)C(=O)N4C3)nccc12` [Compound 3169, (R)-1,1,1-trifluoropropan-2-yl ((2R,6S,7R,9S,13aS,14aR,16aS,Z)-14a-((cyclopropylsulfonyl)carbamoyl)-2-((7-fluoro-5-methoxyisoquinolin-1-yl)oxy)-7,9-dimethyl-5,16-dioxo-1,2,3,5,6,7,8,9,10,11,13a,14,14a,15,16,16a-hexadecahydrocyclopropa[e]pyrrolo[1,2-a][1,4]diazacyclopentadecin-6-yl)carbamate], for which the EC50 in assay [1] (setting [3]) is 4.82 to 103 nM; in assay [2] (setting [4]), under 5.46 nM.
As to `COc1cc(F)cc2c(O[C@@H]3C[C@H]4C(=O)N[C@]5(C(=O)NS(=O)(=O)C6CC6)C[C@H]5/C=C\CC[C@@H](C)C[C@@H](C)[C@H](NC(=O)O[C@H](C)C(F)(F)F)C(=O)N4C3)nccc12` [Compound 3170, (R)-1,1,1-trifluoropropan-2-yl ((2R,6S,7R,9R,13aS,14aR,16aS,Z)-14a-((cyclopropylsulfonyl)carbamoyl)-2-((7-fluoro-5-methoxyisoquinolin-1-yl)oxy)-7,9-dimethyl-5,16-dioxo-1,2,3,5,6,7,8,9,10,11,13a,14,14a,15,16,16a-hexadecahydrocyclopropa[e]pyrrolo[1,2-a][1,4]diazacyclopentadecin-6-yl)carbamate], the concentration for a half-maximal effect (EC50) in assay [1] (setting [3]) and in assay [2] (setting [4]) was under 5.46 nM each time.
For `COc1cc(F)cc2c(O[C@@H]3C[C@H]4C(=O)N[C@]5(C(=O)NS(=O)(=O)C6CC6)C[C@H]5/C=C\CC[C@H](C)C[C@@H](C)[C@H](NC(=O)OCC5(C)CC5)C(=O)N4C3)nccc12` [Compound 3171, (1-methylcyclopropyl)methyl ((2R,6S,7R,9S,13aS,14aR,16aS,Z)-14a-((cyclopropylsulfonyl)carbamoyl)-2-((7-fluoro-5-methoxyisoquinolin-1-yl)oxy)-7,9-dimethyl-5,16-dioxo-1,2,3,5,6,7,8,9,10,11,13a,14,14a,15,16,16a-hexadecahydrocyclopropa[e]pyrrolo[1,2-a][1,4]diazacyclopentadecin-6-yl)carbamate], the values for the EC50 in assay [1] (setting [3]) and in assay [2] (setting [4]) were 4.82 to 103 nM and under 5.46 nM, respectively.
Regarding `COc1cc(F)cc2c(O[C@@H]3C[C@H]4C(=O)N[C@]5(C(=O)NS(=O)(=O)C6CC6)C[C@H]5/C=C\CC[C@@H](C)C[C@@H](C)[C@H](NC(=O)OCC5(C)CC5)C(=O)N4C3)nccc12` [Compound 3172, (1-methylcyclopropyl)methyl ((2R,6S,7R,9R,13aS,14aR,16aS,Z)-14a-((cyclopropylsulfonyl)carbamoyl)-2-((7-fluoro-5-methoxyisoquinolin-1-yl)oxy)-7,9-dimethyl-5,16-dioxo-1,2,3,5,6,7,8,9,10,11,13a,14,14a,15,16,16a-hexadecahydrocyclopropa[e]pyrrolo[1,2-a][1,4]diazacyclopentadecin-6-yl)carbamate], the EC50 in assay [1] (setting [3]) is under 5.46 nM; in assay [1] (read-out: LE_1a (EC50)) it was 1.04 nM; in assay [2] (setting [4]), under 5.46 nM; in assay [2] (read-out: LE_1b (EC50)), 1.18 nM.
Turning to `COc1cc(F)cc2c(O[C@@H]3C[C@H]4C(=O)N[C@]5(C(=O)NS(=O)(=O)C6(CF)CC6)C[C@H]5/C=C\CC[C@H](C)C[C@@H](C)[C@H](NC(=O)OC(C)(C)C)C(=O)N4C3)nccc12` [Compound 3173, tert-butyl ((2R,6S,7R,9S,13aS,14aR,16aS,Z)-2-((7-fluoro-5-methoxyisoquinolin-1-yl)oxy)-14a-(((1-(fluoromethyl)cyclopropyl)sulfonyl)carbamoyl)-7,9-dimethyl-5,16-dioxo-1,2,3,5,6,7,8,9,10,11,13a,14,14a,15,16,16a-hexadecahydrocyclopropa[e]pyrrolo[1,2-a][1,4]diazacyclopentadecin-6-yl)carbamate], the EC50 in assay [1] (setting [3]) and in assay [2] (setting [4]) was 4.82 to 103 nM each time.
With `COc1cc(F)cc2c(O[C@@H]3C[C@H]4C(=O)N[C@]5(C(=O)NS(=O)(=O)C6(CF)CC6)C[C@H]5/C=C\CC[C@@H](C)C[C@@H](C)[C@H](NC(=O)OC(C)(C)C)C(=O)N4C3)nccc12` [Compound 3174, tert-butyl ((2R,6S,7R,9R,13aS,14aR,16aS,Z)-2-((7-fluoro-5-methoxyisoquinolin-1-yl)oxy)-14a-(((1-(fluoromethyl)cyclopropyl)sulfonyl)carbamoyl)-7,9-dimethyl-5,16-dioxo-1,2,3,5,6,7,8,9,10,11,13a,14,14a,15,16,16a-hexadecahydrocyclopropa[e]pyrrolo[1,2-a][1,4]diazacyclopentadecin-6-yl)carbamate], the EC50 in assay [1] (setting [3]) and in assay [2] (setting [4]) was under 5.46 nM in each case.
